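Step 1: Grow cells in 96-well plates. Step 2: Expose to compound for 48 hours at 5 concentrations. Step 3: Interpolate endpoints linearly; if unreached, use highest concentration. GI50: concentration for 50% inhibition of growth. TGI denotes the concentration required for complete inhibition of growth.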
What was measured:
Assay in all cases: NCI-60 cell line screen, 48 h
A498 renal = system: A498 renal
A549 NSCLC = system: A549 NSCLC
DU-145 prostate = system: DU-145 prostate
HOP-62 NSCLC = system: HOP-62 NSCLC
MDA-MB-231 breast = system: MDA-MB-231 breast
NCI-H460 lung = system: NCI-H460 lung
NCI/ADR-RES ovarian = system: NCI/ADR-RES ovarian
SK-MEL-28 melanoma = system: SK-MEL-28 melanoma
SNB-75 CNS = system: SNB-75 CNS
U251 CNS = system: U251 CNS

Structure (SMILES)	GI50 (A498 renal)	TGI (A498 renal)	GI50 (A549 NSCLC)	TGI (A549 NSCLC)	GI50 (DU-145 prostate)	TGI (DU-145 prostate)	GI50 (HOP-62 NSCLC)	TGI (HOP-62 NSCLC)	GI50 (MDA-MB-231 breast)	TGI (MDA-MB-231 breast)	GI50 (NCI-H460 lung)	TGI (NCI-H460 lung)	GI50 (NCI/ADR-RES ovarian)	TGI (NCI/ADR-RES ovarian)	GI50 (SK-MEL-28 melanoma)	TGI (SK-MEL-28 melanoma)	GI50 (SNB-75 CNS)	TGI (SNB-75 CNS)	GI50 (U251 CNS)	TGI (U251 CNS)
O=C(N/N=C/c1ccc(Cl)cc1)c1ccc(NC(=O)c2ccccn2)cc1	44.9 µM	> 100 µM	15.9 µM	68 µM	27.2 µM	> 100 µM	18.2 µM	91.3 µM	27.3 µM	> 100 µM	8.2 µM	24.6 µM	16.2 µM	> 100 µM	33 µM	> 100 µM	5.52 µM	24.9 µM	6.45 µM	23.3 µM
COc1cc(/C=C/C(=O)c2cccc(-n3cc(-c4ccccc4)[nH]c3=O)c2)cc(OC)c1OC	2.65 µM	6.63 µM	4.03 µM	> 100 µM	2.16 µM	7.85 µM	4.12 µM	13.6 µM	2.17 µM	6.18 µM	1.4 µM	2.69 µM	1.09 µM	4.58 µM	1.74 µM	3.2 µM	4.47 µM	16.8 µM	0.63 µM	1.94 µM
CCOC(=O)c1noc2c1CCc1c-2cn(Cc2ccc(OC)cc2)c1-c1cc(OC)c(OC)c(OC)c1	2.77 µM	42 µM	3.8 µM	> 100 µM	2.32 µM	6.14 µM	2.53 µM	> 100 µM	2.7 µM	> 100 µM	1 µM	> 100 µM	3.52 µM	> 100 µM	1.9 µM	> 100 µM	3.65 µM	> 100 µM	0.542 µM	> 100 µM
COc1ccc(-c2nc3sc(-c4cc(OC)c(OC)c(OC)c4)nn3c2/C=C2/C(=O)Nc3ccc(F)cc32)cc1	12.2 µM	30.6 µM	2.13 µM	5.26 µM	1.87 µM	4.53 µM	1.94 µM	4.74 µM	5.25 µM	20.7 µM	3.42 µM	15.3 µM	21.9 µM	> 100 µM	9.58 µM	27.8 µM	10.3 µM	22.6 µM	1.77 µM	3.39 µM
CC1CCCCCC(=O)c2c(O)cc(O)cc2CC(=O)O1 (stereo not given)	–	> 100 µM	–	> 100 µM	–	> 100 µM	–	> 100 µM	–	> 100 µM	–	> 100 µM	–	> 100 µM	–	> 100 µM	–	> 100 µM	–	> 100 µM
O=[N+]([O-])c1ccc(C2=NCCO2)cc1	> 100 µM	> 100 µM	> 100 µM	> 100 µM	> 100 µM	> 100 µM	> 100 µM	> 100 µM	> 100 µM	> 100 µM	> 100 µM	> 100 µM	> 100 µM	> 100 µM	> 100 µM	> 100 µM	> 100 µM	> 100 µM	> 100 µM	> 100 µM
CN1CCN(Cc2ccc(NC(=O)c3cncc(C#Cc4cnc(N)c5ncccc45)c3)cc2C(F)(F)F)CC1	0.141 µM	0.652 µM	0.436 µM	2.52 µM	0.37 µM	7.33 µM	0.448 µM	5.78 µM	0.147 µM	0.71 µM	0.261 µM	1.59 µM	0.685 µM	3.13 µM	0.389 µM	1.59 µM	0.391 µM	1.48 µM	0.509 µM	2.18 µM
CC(C)=CCC/C(C)=C/CC/C(C)=C/CSC[C@H](NC(=O)CCCCCN1CCN(C)CC1)C(=O)NC1CCCCCC1	3.76 µM	16.7 µM	2.5 µM	7.4 µM	1.93 µM	3.52 µM	4.42 µM	19.3 µM	1.93 µM	3.86 µM	1.93 µM	3.69 µM	3.89 µM	14.6 µM	1.7 µM	3.32 µM	1.53 µM	4.22 µM	1.73 µM	3.19 µM
O=C1NN2CC(c3ccccc3)=NN=C2c2ccccc21	87.5 µM	> 100 µM	28.6 µM	70.8 µM	31.3 µM	99 µM	35 µM	> 100 µM	26.4 µM	79.1 µM	30.3 µM	92.6 µM	17.5 µM	42.7 µM	28.1 µM	> 100 µM	> 100 µM	> 100 µM	18 µM	33.9 µM
C[C@@H]1CN2[C@H]3[C@@H]1CC[C@]31CCC(=O)O[C@]1(C)[C@H]1CC[C@H]3CCC=C3[C@@H]12	> 30 µM	> 30 µM	> 30 µM	> 30 µM	> 30 µM	> 30 µM	> 30 µM	> 30 µM	> 30 µM	> 30 µM	> 30 µM	> 30 µM	> 30 µM	> 30 µM	> 30 µM	> 30 µM	> 30 µM	> 30 µM	> 30 µM	> 30 µM
Cn1cc(C2=C(c3ccsc3)C(=O)NC2=O)c2ccccc21	12.1 µM	> 25 µM	> 25 µM	> 25 µM	> 25 µM	> 25 µM	> 25 µM	> 25 µM	> 25 µM	> 25 µM	> 25 µM	> 25 µM	> 25 µM	> 25 µM	> 25 µM	> 25 µM	1.07 µM	> 25 µM	> 25 µM	> 25 µM
CC1=C(CCCOC(=O)[C@H](N)CC(C)C)C2=C(C)C3(CC3)[C@@](C)(O)C(=O)C2=C1	1.68 µM	3.66 µM	3.06 µM	30.9 µM	0.392 µM	> 100 µM	1.61 µM	5.42 µM	2.03 µM	6.42 µM	0.375 µM	11.1 µM	2.14 µM	> 38.8 µM	2.11 µM	5.51 µM	1.34 µM	3.05 µM	2.53 µM	13.7 µM
CCN(Cc1ccc(OC)cc1)c1ccc(CO)c(Cl)c1	0.0306 µM	0.168 µM	2.62 µM	35.9 µM	25.6 µM	> 100 µM	2.05 µM	29.4 µM	18.9 µM	61.3 µM	0.317 µM	14.6 µM	15 µM	49.6 µM	16.3 µM	36.6 µM	13.9 µM	45.6 µM	0.966 µM	26.6 µM

Reference: PubChem BioAssay (NCI)
